Values after ≈ are worked out from the molar mass of the structure shown. Read-outs that look alike come from different tables or passages of the source.
Assays:
[1] = system: 2nd instars of larvae of Spodoptera littoralis; experiment: Insecticidal bioassay screening, castor leaf dip, 2nd instar larvae; type: in vivo; settings: for Toxic ratio: 2nd larvae, fenoxycarb's LC50/the compound's LC50 × 100
Description: (§1) Five concentrations (200, 100, 50, 25, 12.5 ppm) were designed for this synthetic compound and the reference fenoxycarb compound as the dynamic ingredients based on ppm via diluting the commercial formulation.
(§2) In this experiment, castor leaves are immersed in each of the previously prepared concentrations of the components for 10 seconds and then left to dry for 60 minutes. Larvae of the second and fourth instars of each checked strain are prepared with treated leaves in gauze-covered glass containers for 72 hrs. An untreated control is made in which leaves are dipped in triton x-100 and distilled water only. Then the preserved leaves were removed & fresh, untreated leaves were provided for 72 hours. Three replicates (10 larvae each) were checked for each concentration. Daily inspection was carried out for all treatments and mortality percentages were recorded 3 days (72 hours) after treatment. The average mortality percentage was corrected employing Abbott's formula. The corrected mortality rate for each of the previously synthesized compounds is statistically calculated according to Finney (1970). Through this rate, the corresponding concentration test lines (LDP lines) are assessed. Fifty and ninety percent mortality are determined, and the regression values for the checked products were previously evaluated.

[2] = system: 4th instars of larvae of Spodoptera littoralis; experiment: Insecticidal bioassay screening, castor leaf dip, 4th instar larvae; type: in vivo; settings: for Toxic ratio: 4th larvae, fenoxycarb's LC50/the compound's LC50 × 100
Description: as §1, §2

[3] = Spodoptera littoralis, foliar, 72 h

Compound	LC50 ([1]; 2nd instars of larvae of Spodoptera littoralis, after 72 hours of treatment)	LC50 ([2]; in vivo)	Toxic ratio ([1]; 72 h)	LC50 ([1]; Spodoptera littoralis, foliar, 2nd larvae of S. littoralis, after 72 h of treatment, treated castor leaves, read-out: LC50)	LC50 ([1]; foliar, against Spodoptera littoralis under laboratory conditions, instar not stated, read-out: LC50)	activity against Spodoptera littoralis ([1]; verbal summary of Table 1, compared with fenoxycarb)	Toxic ratio ([2]; 72 h)	LC50 [2, 3]	LC50 [1, 3]
OC(COc1ccc2ccccc2c1)CN1CCN(CC(O)COc2ccc3ccccc3c2)CC1 (centres unmarked) [3,3′-(piperazine-1,4-diyl)bis(1-(naphthalen-2-yloxy)propan-2-ol)]	about 42.05 ppm	about 86.98 ppm							
OC(COc1ccc2ccccc2c1)CN1CCN(CC(O)COc2ccc3ccccc3c2)CC1 (centres unmarked) [Compound 9, 3,3′-(piperazine-1,4-diyl)bis(1-(naphthalen-2-yloxy)propan-2-ol)]			6.51	42 µg/mL (≈ 86.4 µM)	42 µg/mL (≈ 86.4 µM)	active	49.7	87 µg/mL (≈ 179 µM)	
CCOC(=O)NCCOc1ccc(Oc2ccccc2)cc1 [Fenoxycarb, reference compound]			100				100		2.73 µg/mL (≈ 9.06 µM)
